The text below walks through data of patent US20250034201A1, “PRODRUGS OF GANAXOLONE” (priority 2022, published 2025).

Read-outs that look alike come from different tables or passages of the source.

The nature of the data set: in vitro. The class given is in vitro ADME, human. The protocol: For several compounds only human liver microsomal stability was tested. […] The microsomal assays were carried out with and without the addition of NADPH at a final concentration of 1 mM. For negative control samples, NADPH reagent was not added. […] Note that compounds undergo only Phase I metabolism in liver microsomes.

Setting [1] is: human liver microsomes 0.5 mg/mL, with NADPH, compound 0.5 μM, 37° C., read-out: Human Liver Microsomal Stability t1/2.
The mark [2] stands for this setting: human liver microsomes 0.5 mg/mL, with NADPH, compound 0.5 μM, read-out: Human Liver Microsomal Stability CLint (uL/min/mg liver) (converted).
The mark [3] stands for this setting: human liver microsomes, no NADPH, compound 0.5 μM.

For `CC(=O)[C@H]1CC[C@H]2[C@@H]3CC[C@H]4C[C@](C)(OC(=O)COC(=O)CNC(=O)[C@H](C)N)CC[C@]4(C)[C@H]3CC[C@]12C` [Compound 216], the half-life under setting [1] was 192 min. Further, the microsomal CLint under setting [2] is 7.22 µL/min/mg. In addition, the “Human Liver Microsomal Stability no NADPH, % remain 1 h” value under setting [3] was 80%.

`CC(=O)[C@H]1CC[C@H]2[C@@H]3CC[C@H]4C[C@](C)(OC(=O)CNC(=O)C(C)(C)O)CC[C@]4(C)[C@H]3CC[C@]12C` [Compound 141]: the “Comments: production of GNX (ganaxolone) in human liver microsomes” value (“Comments: production of GNX (ganaxolone)” for short) (human liver microsomes) is on record as “In human no GNX produced”. Further, under “human, microsomes”, the half-life came to 38.3 min; the microsomal CLint was determined as 36.2 µL/min/mg; the “Human Liver Microsomal Stability no NADPH, % remain 1 h” value stood at 99.7%.

As for `CC(=O)[C@H]1CC[C@H]2[C@@H]3CC[C@H]4C[C@](C)(OC(=O)COC(=O)C(C)(C)OC(=O)CN(C)CCO)CC[C@]4(C)[C@H]3CC[C@]12C` [Compound 233], under setting [1], the half-life turned out to be 5.3 min. Under setting [2], the microsomal CLint was 261 µL/min/mg. Moreover, the “Human Liver Microsomal Stability no NADPH, % remain 1 h” value under setting [3] came out at 5%.

With `CC(=O)[C@H]1CC[C@H]2[C@@H]3CC[C@H]4C[C@](C)(OC(=O)CNCC(C)(C)O)CC[C@]4(C)[C@H]3CC[C@]12C` [Compound 140], the half-life under setting [1] came to 39.1 min. Further, the microsomal CLint under setting [2] is 35.5 µL/min/mg. Besides, under setting [3], the “Human Liver Microsomal Stability no NADPH, % remain 1 h” value is reported as 99%.

In the case of `CCOCCC(=O)OCC(=O)O[C@]1(C)CC[C@@]2(C)[C@@H](CC[C@@H]3[C@@H]2CC[C@]2(C)[C@@H](C(C)=O)CC[C@@H]32)C1` [Compound 203], the half-life under setting [1] turned out to be 2.24 min. The microsomal CLint under setting [2] was 618 µL/min/mg. Under setting [3], the “Human Liver Microsomal Stability no NADPH, % remain 1 h” value turned out to be 0.79%.

As for `CC(=O)[C@H]1CC[C@H]2[C@@H]3CC[C@H]4C[C@](C)(OC(=O)CNCC(C)(C)N)CC[C@]4(C)[C@H]3CC[C@]12C` [Compound 138], where the note is “human liver microsomes”, the “Comments: production of GNX (ganaxolone)” value is reported as “In human small amount of GNX produced”. Moreover, the half-life under setting [1] was 33.2 min. In addition, under setting [2], the microsomal CLint is 41.8 µL/min/mg. Further, the “Human Liver Microsomal Stability no NADPH, % remain 1 h” value under setting [3] is 95.3%.

Turning to `CC(=O)[C@H]1CC[C@H]2[C@@H]3CC[C@H]4C[C@](C)(OC(=O)CSC(=N)N)CC[C@]4(C)[C@H]3CC[C@]12C` [Compound 304], for the setting “human liver microsomes”, the “Comments: production of GNX (ganaxolone)” value is “In human small amount of GNX produced”. In addition, the half-life under setting [1] is 173 min. Further, under setting [2], the microsomal CLint was 8.03 µL/min/mg. Also, the “Human Liver Microsomal Stability no NADPH, % remain 1 h” value under setting [3] was 83.8%.

Take `CC(=O)[C@H]1CC[C@H]2[C@@H]3CC[C@H]4C[C@](C)(OC(=O)CC(C)(C)C(=O)NCCN(C)C)CC[C@]4(C)[C@H]3CC[C@]12C` [Compound 412]: where the note is “human liver microsomes”, the “Comments: production of GNX (ganaxolone)” value is “In human small amount of GNX produced”. Besides, under setting [1], the half-life was determined as 273 min. Besides, the microsomal CLint under setting [2] is 5.07 µL/min/mg. Further, under setting [3], the “Human Liver Microsomal Stability no NADPH, % remain 1 h” value turned out to be 94%.

With `COCCOCCOCC(=O)OCC(=O)O[C@]1(C)CC[C@@]2(C)[C@@H](CC[C@@H]3[C@@H]2CC[C@]2(C)[C@@H](C(C)=O)CC[C@@H]32)C1` [Compound 205], the half-life under setting [1] was found to be 3.58 min. For the same compound, the microsomal CLint under setting [2] was 387 µL/min/mg. Under setting [3], the “Human Liver Microsomal Stability no NADPH, % remain 1 h” value worked out at 5.7%.

Turning to `COCCOCC(=O)OCC(=O)O[C@]1(C)CC[C@@]2(C)[C@@H](CC[C@@H]3[C@@H]2CC[C@]2(C)[C@@H](C(C)=O)CC[C@@H]32)C1` [Compound 204], the half-life under setting [1] was determined as 4.12 min. Further, the microsomal CLint under setting [2] is 337 µL/min/mg. For the same compound, the “Human Liver Microsomal Stability no NADPH, % remain 1 h” value under setting [3] came out at 10.5%.

Consider `CC(=O)[C@H]1CC[C@H]2[C@@H]3CC[C@H]4C[C@](C)(OC(=O)COC(=O)[C@@H](C)N5CCOCC5)CC[C@]4(C)[C@H]3CC[C@]12C` [Compound 212], for which, where the note is “human liver microsomes”, the “Comments: production of GNX (ganaxolone)” value is given as “In human small amount of GNX produced”. For the setting “human, microsomes”, the half-life was determined as 14.3 min; the microsomal CLint worked out at 96.9 µL/min/mg; the “Human Liver Microsomal Stability no NADPH, % remain 1 h” value is 99%.

As to `CNCC(=O)O[C@]1(C)CC[C@@]2(C)[C@@H](CC[C@@H]3[C@@H]2CC[C@]2(C)[C@@H](C(C)=O)CC[C@@H]32)C1` [Compound 114], the half-life under setting [1] amounted to 277 min. The microsomal CLint under setting [2] was 5 µL/min/mg. In addition, under setting [3], the “Human Liver Microsomal Stability no NADPH, % remain 1 h” value is 99.5%.

With `CC(=O)[C@H]1CC[C@H]2[C@@H]3CC[C@H]4C[C@](C)(OC(=O)COC(=O)CNC(=O)[C@@H](N)C(C)C)CC[C@]4(C)[C@H]3CC[C@]12C` [Compound 214], under setting [1], the half-life was 161 min. Also, the microsomal CLint under setting [2] was 8.6 µL/min/mg. Moreover, the “Human Liver Microsomal Stability no NADPH, % remain 1 h” value under setting [3] was found to be 79.5%.

`CC(=O)[C@H]1CC[C@H]2[C@@H]3CC[C@H]4C[C@](C)(OC(=O)COC(=O)C(C)(C)OC(=O)CN(C)C)CC[C@]4(C)[C@H]3CC[C@]12C` [Compound 227]: the “Comments: production of GNX (ganaxolone)” value was “In human no GNX produced”. Where the note is “human, microsomes”, the half-life amounted to 23.9 min; the microsomal CLint stood at 58.1 µL/min/mg; the “Human Liver Microsomal Stability no NADPH, % remain 1 h” value was determined as 71%.

As to `COCCN(CCO)CC(=O)OC(C)(C)C(=O)OCC(=O)O[C@]1(C)CC[C@@]2(C)[C@@H](CC[C@@H]3[C@@H]2CC[C@]2(C)[C@@H](C(C)=O)CC[C@@H]32)C1` [Compound 235], under setting [1], the half-life was determined as 5.2 min. Under setting [2], the microsomal CLint is 269 µL/min/mg. Besides, the “Human Liver Microsomal Stability no NADPH, % remain 1 h” value under setting [3] is 36%.

`CC(=O)[C@H]1CC[C@H]2[C@@H]3CC[C@H]4C[C@](C)(OC(=O)CCCCN)CC[C@]4(C)[C@H]3CC[C@]12C` [Compound 418]: the “Comments: production of GNX (ganaxolone)” value (human liver microsomes) is on record as “In human no GNX produced”. The half-life under setting [1] is 451 min. Besides, under setting [2], the microsomal CLint is 3.08 µL/min/mg. Besides, the “Human Liver Microsomal Stability no NADPH, % remain 1 h” value under setting [3] is 99%.

Take `CNC(C)(C)C(=O)OCC(=O)O[C@]1(C)CC[C@@]2(C)[C@@H](CC[C@@H]3[C@@H]2CC[C@]2(C)[C@@H](C(C)=O)CC[C@@H]32)C1` [Compound 232]: under setting [1], the half-life is 13.5 min. Further, the microsomal CLint under setting [2] is 103 µL/min/mg. Also, under setting [3], the “Human Liver Microsomal Stability no NADPH, % remain 1 h” value is 27%.

Regarding `CC(=O)[C@H]1CC[C@H]2[C@@H]3CC[C@H]4C[C@](C)(OC(=O)COC(=O)C(C)(C)N5CCOCC5)CC[C@]4(C)[C@H]3CC[C@]12C` [Compound 213], the “Comments: production of GNX (ganaxolone)” value (human liver microsomes) is “In human small amount of GNX produced”. Besides, the half-life under setting [1] came out at 27.3 min. Also, the microsomal CLint under setting [2] was 50.7 µL/min/mg. Besides, the “Human Liver Microsomal Stability no NADPH, % remain 1 h” value under setting [3] is on record as 98%.

Take `CC(=O)[C@H]1CC[C@H]2[C@@H]3CC[C@H]4C[C@](C)(OC(=O)CCC(=O)O)CC[C@]4(C)[C@H]3CC[C@]12C` [Compound 407]: the “Comments: production of GNX (ganaxolone)” value (human liver microsomes) is given as “In human no GNX produced”. Also, under setting [1], the half-life was 79.8 min. The microsomal CLint under setting [2] is 17.4 µL/min/mg. Besides, the “Human Liver Microsomal Stability no NADPH, % remain 1 h” value under setting [3] is 99%.

Take `CC(=O)[C@H]1CC[C@H]2[C@@H]3CC[C@H]4C[C@](C)(OC(=O)C[C@H](N)C(=O)O)CC[C@]4(C)[C@H]3CC[C@]12C` [Compound 414]: the “Comments: production of GNX (ganaxolone)” value (human liver microsomes) is “In human no GNX produced”. For the same compound, under setting [1], the half-life was 178 min. Also, the microsomal CLint under setting [2] was 7.81 µL/min/mg. In addition, the “Human Liver Microsomal Stability no NADPH, % remain 1 h” value under setting [3] is reported as 82%.

For `CC(=O)[C@H]1CC[C@H]2[C@@H]3CC[C@H]4C[C@](C)(OC(=O)CC(C)(C)C(=O)O)CC[C@]4(C)[C@H]3CC[C@]12C` [Compound 420], where the note is “human liver microsomes”, the “Comments: production of GNX (ganaxolone)” value is “In human no GNX produced”. Moreover, the half-life under setting [1] was 445 min. In addition, the microsomal CLint under setting [2] is 3.11 µL/min/mg. Moreover, the “Human Liver Microsomal Stability no NADPH, % remain 1 h” value under setting [3] came out at 97.4%.

Take `CC(=O)[C@H]1CC[C@H]2[C@@H]3CC[C@H]4C[C@](C)(OC(=O)OCCN(C)C)CC[C@]4(C)[C@H]3CC[C@]12C` [Compound 419]: the “Comments: production of GNX (ganaxolone)” value (human liver microsomes) was “In human small amount of GNX produced”. Also, under setting [1], the half-life turned out to be 39.5 min. Moreover, the microsomal CLint under setting [2] is 35.1 µL/min/mg. Moreover, the “Human Liver Microsomal Stability no NADPH, % remain 1 h” value under setting [3] stood at 88%.

For `CC(=O)[C@H]1CC[C@H]2[C@@H]3CC[C@H]4C[C@](C)(OC(=O)CSC(C)(C)COC(=O)CN5CCOCC5)CC[C@]4(C)[C@H]3CC[C@]12C` [Compound 310], the “Comments: production of GNX (ganaxolone)” value (human liver microsomes) is listed as “In human no GNX produced”. In addition, the half-life under setting [1] came out at 2.9 min. Under setting [2], the microsomal CLint is 474 µL/min/mg. Moreover, the “Human Liver Microsomal Stability no NADPH, % remain 1 h” value under setting [3] is listed as 1%.

In the case of `CC(=O)[C@H]1CC[C@H]2[C@@H]3CC[C@H]4C[C@](C)(OC(=O)CNC(=O)CN5CCOCC5)CC[C@]4(C)[C@H]3CC[C@]12C` [Compound 112], the “Comments: production of GNX (ganaxolone)” value (human liver microsomes) is “In human no GNX produced”. The half-life under setting [1] turned out to be 46.7 min. The microsomal CLint under setting [2] was 29.6 µL/min/mg. The “Human Liver Microsomal Stability no NADPH, % remain 1 h” value under setting [3] worked out at 98.6%.

In the case of `CC(=O)[C@H]1CC[C@H]2[C@@H]3CC[C@H]4C[C@](C)(OC(=O)COC(=O)[C@H](C)N5CCOCC5)CC[C@]4(C)[C@H]3CC[C@]12C` [Compound 211], the half-life under setting [1] amounted to 10.5 min. The microsomal CLint under setting [2] was 132 µL/min/mg. Besides, under setting [3], the “Human Liver Microsomal Stability no NADPH, % remain 1 h” value is 27%.
